Data reported in the NIST ThermoML archive (doi:10.1021/je200195q).
Numbers after ± are expanded uncertainties.

Assay: activity coefficient (dimensionless); of the first substance listed, at infinite dilution; xn = mol fraction of the nth substance listed
Settings: 101 kPa, Liquid, Chromatography, x1 = 0

CCCCCCCCCCCCCC [tetradecane] + CCCCn1cc[n+](C)c1.O=S(=O)([N-]S(=O)(=O)C(F)(F)C(F)(F)F)C(F)(F)C(F)(F)F
activity coefficient (322.55 K): 153 ± 11
activity coefficient (342.75 K): 113 ± 7.7
activity coefficient (362.65 K): 91.5 ± 6.3

CCN(CC)CC [triethylamine] + CCCCCCCCCCn1cc[n+](CCCCCCCCCC)c1C.O=S(=O)([N-]S(=O)(=O)C(F)(F)F)C(F)(F)F
activity coefficient (323.1 K): 3.67 ± 0.25
activity coefficient (333.15 K): 3.17 ± 0.22
activity coefficient (343.15 K): 2.86 ± 0.2

CCC(=O)CC [pentan-3-one] + CCn1cc[n+](C)c1.CS(=O)(=O)[O-]
activity coefficient (312.55 K): 7.58 ± 0.52
activity coefficient (322.45 K): 7.45 ± 0.51
activity coefficient (332.45 K): 7.37 ± 0.5

C1CCCCCC1 [cycloheptane] + CCCCCCCCCCn1cc[n+](CCCCCCCCCC)c1C.O=S(=O)([N-]S(=O)(=O)C(F)(F)F)C(F)(F)F
activity coefficient (323.1 K): 3.17 ± 0.22
activity coefficient (333.15 K): 4.46 ± 0.3
activity coefficient (343.15 K): 6.09 ± 0.41

Cc1ccccc1 [toluene] + CCCCCCCCCCn1cc[n+](CCCCCCCCCC)c1C.O=S(=O)([N-]S(=O)(=O)C(F)(F)F)C(F)(F)F
activity coefficient (323.1 K): 0.512 ± 0.038
activity coefficient (333.15 K): 0.52 ± 0.039
activity coefficient (343.15 K): 0.527 ± 0.039

c1ccccc1 [benzene] + CCCCn1cc[n+](C)c1.O=S(=O)([N-]S(=O)(=O)C(F)(F)C(F)(F)F)C(F)(F)C(F)(F)F
activity coefficient (322.55 K): 1.01 ± 0.063
activity coefficient (342.75 K): 1.02 ± 0.064
activity coefficient (362.65 K): 1.03 ± 0.065

CCC(=O)CC [pentan-3-one] + CCCCCC[n+]1ccn(C)c1.FC(F)(F)C(F)(F)[P-](F)(F)(F)(C(F)(F)C(F)(F)F)C(F)(F)C(F)(F)F
activity coefficient (312.8 K): 0.236 ± 0.029
activity coefficient (332.85 K): 0.28 ± 0.03
activity coefficient (354.65 K): 0.301 ± 0.031

C#CCCCCC [1-heptyne] + CCCCCC[n+]1ccn(C)c1.FC(F)(F)C(F)(F)[P-](F)(F)(F)(C(F)(F)C(F)(F)F)C(F)(F)C(F)(F)F
activity coefficient (312.8 K): 2.54 ± 0.17
activity coefficient (332.85 K): 2.5 ± 0.17
activity coefficient (354.65 K): 2.32 ± 0.16

CC#N [acetonitrile] + CCCCCCCCCCn1cc[n+](CCCCCCCCCC)c1C.O=S(=O)([N-]S(=O)(=O)C(F)(F)F)C(F)(F)F
activity coefficient (323.1 K): 0.47 ± 0.037
activity coefficient (333.15 K): 0.453 ± 0.036
activity coefficient (343.15 K): 0.44 ± 0.035

CCC(C)CC [3-methylpentane] + CCn1cc[n+](C)c1.CS(=O)(=O)[O-]
activity coefficient (312.55 K): 157 ± 11
activity coefficient (322.45 K): 135 ± 9.3
activity coefficient (332.45 K): 115 ± 7.9

c1ccncc1 [pyridine] + CCCCCCCCCCn1cc[n+](CCCCCCCCCC)c1C.O=S(=O)([N-]S(=O)(=O)C(F)(F)F)C(F)(F)F
activity coefficient (323.1 K): 0.328 ± 0.032
activity coefficient (333.15 K): 0.331 ± 0.032
activity coefficient (343.15 K): 0.334 ± 0.032

C[N+](=O)[O-] [nitromethane] + CCn1cc[n+](C)c1.CS(=O)(=O)[O-]
activity coefficient (312.55 K): 2.06 ± 0.14
activity coefficient (322.45 K): 1.26 ± 0.081
activity coefficient (332.45 K): 0.801 ± 0.052

CCOCC [diethyl ether] + CCCCCCCCCCn1cc[n+](CCCCCCCCCC)c1C.O=S(=O)([N-]S(=O)(=O)C(F)(F)F)C(F)(F)F
activity coefficient (323.1 K): 0.746 ± 0.049
activity coefficient (333.15 K): 0.771 ± 0.05
activity coefficient (343.15 K): 0.773 ± 0.051

CC(C)CC(C)(C)C [2,2,4-trimethylpentane] + CCn1cc[n+](C)c1.CS(=O)(=O)[O-]
activity coefficient (312.55 K): 445 ± 31
activity coefficient (322.45 K): 387 ± 27
activity coefficient (332.45 K): 334 ± 23

C1CCCCC1 [cyclohexane] + CCCCn1cc[n+](C)c1.O=S(=O)([N-]S(=O)(=O)C(F)(F)C(F)(F)F)C(F)(F)C(F)(F)F
activity coefficient (322.55 K): 7 ± 0.48
activity coefficient (342.75 K): 6.12 ± 0.42
activity coefficient (362.65 K): 5.41 ± 0.37

c1ccncc1 [pyridine] + CCCCCC[n+]1ccn(C)c1.FC(F)(F)C(F)(F)[P-](F)(F)(F)(C(F)(F)C(F)(F)F)C(F)(F)C(F)(F)F
activity coefficient (312.8 K): 0.302 ± 0.031
activity coefficient (332.85 K): 0.326 ± 0.032
activity coefficient (354.65 K): 0.331 ± 0.032

CC(C)CC(C)(C)C [2,2,4-trimethylpentane] + CCCCn1cc[n+](C)c1.O=S(=O)([N-]S(=O)(=O)C(F)(F)C(F)(F)F)C(F)(F)C(F)(F)F
activity coefficient (322.55 K): 13.3 ± 0.91
activity coefficient (342.75 K): 11.7 ± 0.8
activity coefficient (362.65 K): 10.5 ± 0.72

CCCCCCC [heptane] + CCCCn1cc[n+](C)c1.O=S(=O)([N-]S(=O)(=O)C(F)(F)C(F)(F)F)C(F)(F)C(F)(F)F
activity coefficient (322.55 K): 13.6 ± 0.93
activity coefficient (342.75 K): 12.4 ± 0.84
activity coefficient (362.65 K): 11.6 ± 0.79

Cc1ccc(C)cc1 [1,4-dimethylbenzene] + CCCCCC[n+]1ccn(C)c1.FC(F)(F)C(F)(F)[P-](F)(F)(F)(C(F)(F)C(F)(F)F)C(F)(F)C(F)(F)F
activity coefficient (312.8 K): 0.992 ± 0.062
activity coefficient (332.85 K): 1.03 ± 0.065
activity coefficient (354.65 K): 1 ± 0.063

CCC(C)=O [butanone] + CCCCCCCCCCn1cc[n+](CCCCCCCCCC)c1C.O=S(=O)([N-]S(=O)(=O)C(F)(F)F)C(F)(F)F
activity coefficient (323.1 K): 0.318 ± 0.031
activity coefficient (333.15 K): 0.292 ± 0.031
activity coefficient (343.15 K): 0.264 ± 0.03

CCC[N+](=O)[O-] [1-nitropropane] + CCn1cc[n+](C)c1.CS(=O)(=O)[O-]
activity coefficient (312.55 K): 4.19 ± 0.28
activity coefficient (322.45 K): 2.7 ± 0.18
activity coefficient (332.45 K): 1.73 ± 0.12

OCC(F)(F)F [2,2,2-trifluoroethanol] + CCCCn1cc[n+](C)c1.O=S(=O)([N-]S(=O)(=O)C(F)(F)C(F)(F)F)C(F)(F)C(F)(F)F
activity coefficient (322.55 K): 0.457 ± 0.036
activity coefficient (342.75 K): 0.412 ± 0.034
activity coefficient (362.65 K): 0.373 ± 0.033

C#CCCCC [1-hexyne] + CCCCCCCCCCn1cc[n+](CCCCCCCCCC)c1C.O=S(=O)([N-]S(=O)(=O)C(F)(F)F)C(F)(F)F
activity coefficient (323.1 K): 0.925 ± 0.058
activity coefficient (333.15 K): 0.917 ± 0.058
activity coefficient (343.15 K): 0.899 ± 0.057

CC#N [acetonitrile] + CCCCCC[n+]1ccn(C)c1.FC(F)(F)C(F)(F)[P-](F)(F)(F)(C(F)(F)C(F)(F)F)C(F)(F)C(F)(F)F
activity coefficient (312.8 K): 0.295 ± 0.031
activity coefficient (332.85 K): 0.295 ± 0.031
activity coefficient (354.65 K): 0.292 ± 0.031

ClC(Cl)Cl [trichloromethane] + CCCCCC[n+]1ccn(C)c1.FC(F)(F)C(F)(F)[P-](F)(F)(F)(C(F)(F)C(F)(F)F)C(F)(F)C(F)(F)F
activity coefficient (312.8 K): 1.09 ± 0.069
activity coefficient (332.85 K): 1.09 ± 0.069
activity coefficient (354.65 K): 1.05 ± 0.066

OCC(F)(F)F [2,2,2-trifluoroethanol] + CCCCCC[n+]1ccn(C)c1.FC(F)(F)C(F)(F)[P-](F)(F)(F)(C(F)(F)C(F)(F)F)C(F)(F)C(F)(F)F
activity coefficient (312.8 K): 0.987 ± 0.062
activity coefficient (332.85 K): 0.891 ± 0.057
activity coefficient (354.65 K): 0.728 ± 0.048

CC(C)O [propan-2-ol] + CCCCCCCCCCn1cc[n+](CCCCCCCCCC)c1C.O=S(=O)([N-]S(=O)(=O)C(F)(F)F)C(F)(F)F
activity coefficient (323.1 K): 1.27 ± 0.082
activity coefficient (333.15 K): 1.14 ± 0.073
activity coefficient (343.15 K): 1.03 ± 0.065

ClCCl [dichloromethane] + CCCCCC[n+]1ccn(C)c1.FC(F)(F)C(F)(F)[P-](F)(F)(F)(C(F)(F)C(F)(F)F)C(F)(F)C(F)(F)F
activity coefficient (312.8 K): 0.66 ± 0.045
activity coefficient (332.85 K): 0.699 ± 0.047
activity coefficient (354.65 K): 0.707 ± 0.047

CC#N [acetonitrile] + CCCCn1cc[n+](C)c1.O=S(=O)([N-]S(=O)(=O)C(F)(F)C(F)(F)F)C(F)(F)C(F)(F)F
activity coefficient (322.55 K): 0.528 ± 0.039
activity coefficient (342.75 K): 0.514 ± 0.038
activity coefficient (362.65 K): 0.504 ± 0.038

CC1CCCCC1 [methylcyclohexane] + CCCCn1cc[n+](C)c1.O=S(=O)([N-]S(=O)(=O)C(F)(F)C(F)(F)F)C(F)(F)C(F)(F)F
activity coefficient (322.55 K): 9.09 ± 0.62
activity coefficient (342.75 K): 7.96 ± 0.54
activity coefficient (362.65 K): 7.07 ± 0.48

C=O [methanal] + CCCCCCCCCCn1cc[n+](CCCCCCCCCC)c1C.O=S(=O)([N-]S(=O)(=O)C(F)(F)F)C(F)(F)F
activity coefficient (323.1 K): 0.074 ± 0.03
activity coefficient (333.15 K): 0.08 ± 0.03
activity coefficient (343.15 K): 0.085 ± 0.03

C1CCCCCC1 [cycloheptane] + CCCCCC[n+]1ccn(C)c1.FC(F)(F)C(F)(F)[P-](F)(F)(F)(C(F)(F)C(F)(F)F)C(F)(F)C(F)(F)F
activity coefficient (312.8 K): 9.01 ± 0.61
activity coefficient (332.85 K): 13.2 ± 0.9
activity coefficient (354.65 K): 28.7 ± 2

Cc1cccc(C)c1 [1,3-dimethylbenzene] + CCCCCC[n+]1ccn(C)c1.FC(F)(F)C(F)(F)[P-](F)(F)(F)(C(F)(F)C(F)(F)F)C(F)(F)C(F)(F)F
activity coefficient (312.8 K): 0.939 ± 0.059
activity coefficient (332.85 K): 0.997 ± 0.062
activity coefficient (354.65 K): 1.01 ± 0.063

C1COCCO1 [1,4-dioxane] + CCCCCCCCCCn1cc[n+](CCCCCCCCCC)c1C.O=S(=O)([N-]S(=O)(=O)C(F)(F)F)C(F)(F)F
activity coefficient (323.1 K): 0.463 ± 0.036
activity coefficient (333.15 K): 0.46 ± 0.036
activity coefficient (343.15 K): 0.453 ± 0.036

CCC(=O)CC [pentan-3-one] + CCCCCCCCCCn1cc[n+](CCCCCCCCCC)c1C.O=S(=O)([N-]S(=O)(=O)C(F)(F)F)C(F)(F)F
activity coefficient (323.1 K): 0.37 ± 0.03
activity coefficient (333.15 K): 0.378 ± 0.033
activity coefficient (343.15 K): 0.386 ± 0.033

CCCCCC [hexane] + CCCCCCCCCCn1cc[n+](CCCCCCCCCC)c1C.O=S(=O)([N-]S(=O)(=O)C(F)(F)F)C(F)(F)F
activity coefficient (323.1 K): 1.82 ± 0.12
activity coefficient (333.15 K): 1.79 ± 0.12
activity coefficient (343.15 K): 1.76 ± 0.12

c1ccncc1 [pyridine] + CCCCn1cc[n+](C)c1.O=S(=O)([N-]S(=O)(=O)C(F)(F)C(F)(F)F)C(F)(F)C(F)(F)F
activity coefficient (322.55 K): 0.386 ± 0.033
activity coefficient (342.75 K): 0.429 ± 0.035
activity coefficient (362.65 K): 0.45 ± 0.036

CCCCCCCC [octane] + CCCCCC[n+]1ccn(C)c1.FC(F)(F)C(F)(F)[P-](F)(F)(F)(C(F)(F)C(F)(F)F)C(F)(F)C(F)(F)F
activity coefficient (312.8 K): 12.2 ± 0.83
activity coefficient (332.85 K): 10.5 ± 0.72
activity coefficient (354.65 K): 8.87 ± 0.6

C=O [methanal] + CCn1cc[n+](C)c1.CS(=O)(=O)[O-]
activity coefficient (312.55 K): 0.615 ± 0.043
activity coefficient (322.45 K): 0.656 ± 0.045
activity coefficient (332.45 K): 0.691 ± 0.046

CCCCCCC [heptane] + CCCCCCCCCCn1cc[n+](CCCCCCCCCC)c1C.O=S(=O)([N-]S(=O)(=O)C(F)(F)F)C(F)(F)F
activity coefficient (323.1 K): 2.53 ± 0.17
activity coefficient (333.15 K): 2.11 ± 0.14
activity coefficient (343.15 K): 2.08 ± 0.14

CCCO [propan-1-ol] + CCCCCCCCCCn1cc[n+](CCCCCCCCCC)c1C.O=S(=O)([N-]S(=O)(=O)C(F)(F)F)C(F)(F)F
activity coefficient (323.1 K): 1.31 ± 0.085
activity coefficient (333.15 K): 1.16 ± 0.074
activity coefficient (343.15 K): 1.06 ± 0.067
